Measurements published in patent publication US5593970A, “Heterocyclic anthracycline analogs” (priority 1994, dated 1997).
“And” between values parts separate entries of the source, which are not always exact repeats. Identical values can stand only once. Like-named read-outs stand apart in the source and are kept apart here.

Columns and labels:
CCRF-CEM = experiment: NCI sulforhodamine B assay; type: cell-based; conditions: Homo sapiens, 48 h, read-out: Log10 LC50 (converted)
Description: The method consists of incubating varying concentrations of the drug with an inoculum of cells for two days. […] The 57 cell lines included two mouse leukemia lines (P388 parental and adriamycin resistant) and 56 human cell lines.

HCC-2998 = experiment: NCI sulforhodamine B assay; type: cell-based, human
Description: (§1) These assays were carried out at the Developmental Therapeutics Program, Division of Cancer Treatment, National Cancer Institute (Bethesda, Md., U.S.A.). The method consists of incubating varying concentrations of the drug with an inoculum of cells for two days. […] The 57 cell lines included two mouse leukemia lines (P388 parental and adriamycin resistant) and […] human cell lines.
(§2) It should be noted that the first two parameters (GI50 and TGI) relate to antiproliferation effects while the third one (LC50) indicates true cytotoxicity. A value of -4 or greater is considered to denote resistance (inactivity).

HCT-15 = experiment: NCI sulforhodamine B assay; type: cell-based, human; conditions: 2880 min
Description: as §1, §2

HOP-18 = experiment: NCI sulforhodamine B assay; type: cell-based, human
Description: as §1, §2

IGROV-1 = experiment: NCI sulforhodamine B assay; type: cell-based, human
Description: as §1, §2

LOX-IMVI = experiment: NCI sulforhodamine B assay; type: cell-based, human
Description: as §1, §2

RPMI-8226 = experiment: NCI sulforhodamine B assay; type: cell-based, human; conditions: 2880 min
Description: as §1, §2

RXF-393L = experiment: NCI sulforhodamine B assay; type: cell-based, human
Description: as §1, §2

SF-295 = experiment: NCI sulforhodamine B assay; type: cell-based, human
Description: as §1, §2

SF-539 = experiment: NCI sulforhodamine B assay; type: cell-based, human
Description: as §1, §2

SK-MEL-28 = experiment: NCI sulforhodamine B assay; type: cell-based, human
Description: as §1, §2

SK-MEL-2 = experiment: NCI sulforhodamine B assay; type: cell-based, human
Description: as §1, §2

SK-MEL-5 = experiment: NCI sulforhodamine B assay; type: cell-based, human
Description: as §1, §2

SN-12C = experiment: NCI sulforhodamine B assay; type: cell-based, human
Description: as §1, §2

SNB-19 = experiment: NCI sulforhodamine B assay; type: cell-based, human; conditions: for GI50: read-out: Log10 GI50 (converted)
Description: as §1, §2

SNB-75 = experiment: NCI sulforhodamine B assay; type: cell-based, human
Description: as §1, §2

UACC-257 = experiment: NCI sulforhodamine B assay; type: cell-based, human
Description: as §1, §2

UACC-62 = experiment: NCI sulforhodamine B assay; type: cell-based, human
Description: as §1, §2

P388/ADR = experiment: NCI sulforhodamine B assay; type: cell-based, mouse
Description: as §1, §2

tumor cell lines = conditions: tumor cell line panel, 48 h
Leukemia = conditions: leukemia cell lines, 48 h
NSC Lung = conditions: nsc lung cancer cell lines, 48 h
SC Lung = conditions: sc lung cancer cell lines, 48 h
Colon = conditions: colon cancer cell lines, 48 h
CNS = conditions: cns cancer cell lines, 48 h
Ovarian = conditions: ovarian cancer cell lines, 48 h
solid tumors = conditions: solid tumor cell lines, 48 h

Molecule: COC(=O)C1CC2=C(C(=O)c3c(cc4ccccc4c3O)C2=O)C(O[C@H]2C[C@H](NC(=O)C(F)(F)F)[C@H](O)[C@H](C)O2)O1 (mixture of isomers) [BCH-242, (1'S,1R,3S) and (1'S, 1S,3R)-Methyl[11-hydroxy-1-2',3',6'-trideoxy-3-trifluroacetamido-L-lyxohexopyranose)-5,12-dioxo-3,4,5,12-tetrahydroanthraceno[2,3-c]pyran-3-yl]formate]
- CC50 (CCRF-CEM): > 100 µM
- Log10 GI50 (HCC-2998; HCC-2998): -5.92 log molar
- GI50 (HCC-2998; Homo sapiens, HCC 2998, HCC-2998, read-out: Log10 GI50 (converted)): 2.34 µM
- Log10 LC50 (HCT-15): -5.38 log molar
- Log10 GI50 (HOP-18; HOP-18): -5.94 log molar
- Log10 TGI (HOP-18; HOP-18): -5.45 log molar
- Log10 LC50 (HOP-18; HOP-18, 2880 min): -4.92 log molar
- IC100 (HOP-18; Homo sapiens, HOP-18, 48 h, HOP-18, read-out: Log10 TGI (converted)): 4.9 µM
- CC50 (HOP-18; Homo sapiens, HOP-18, 48 h, read-out: Log10 LC50, HOP-18 (converted)): 16.6 µM
- GI50 (HOP-18; Homo sapiens, HOP-18, HOP-18, read-out: Log10 GI50 (converted)): 1.91 µM
- Log10 GI50 (IGROV-1): -5.75 log molar
- Log10 LC50 (IGROV-1; 2880 min): -5.10 log molar
- CC50 (LOX-IMVI; Homo sapiens, LOX IMVI, 48 h, read-out: Log10 LC50, LOX-IMVI (converted)): 5.75 µM
- Log10 LC50 (LOX-IMVI; LOX-IMVI, 2880 min): -5.43 log molar
- Log10 LC50 (RPMI-8226): -4.47 log molar
- IC100 (RXF-393L; Homo sapiens, 48 h, RXF-393L, read-out: Log10 TGI (converted)): 2.63 µM
- CC50 (RXF-393L; Homo sapiens, 48 h, read-out: Log10 LC50, RXF-393L (converted)): 5.37 µM
- GI50 (RXF-393L; Homo sapiens, RXF-393L, read-out: Log10 GI50 (converted)): 1.29 µM
- Log10 GI50 (RXF-393L; RXF-393L): -6.05 log molar
- Log10 TGI (RXF-393L; RXF-393L): -5.67 log molar
- Log10 LC50 (RXF-393L; RXF-393L, 2880 min): -5.32 log molar
- IC100 (SF-295; Homo sapiens, SF-295, 48 h, SF-295, read-out: Log10 TGI (converted)): 7.08 µM
- GI50 (SF-295; Homo sapiens, SF-295, SF-295, read-out: Log10 GI50 (converted)): 2.4 µM
- Log10 GI50 (SF-295; SF-295): -5.70 log molar
- Log10 TGI (SF-295; SF-295): -5.41 log molar
- IC100 (SF-539; Homo sapiens, SF-539, 48 h, SF-539, read-out: Log10 TGI (converted)): 4.37 µM
- CC50 (SF-539; Homo sapiens, SF-539, 48 h, read-out: Log10 LC50, SF-539 (converted)): 9.33 µM
- GI50 (SF-539; Homo sapiens, SF-539, SF-539, read-out: Log10 GI50 (converted)): 2.04 µM
- Log10 GI50 (SF-539; SF-539): -5.90 log molar
- Log10 TGI (SF-539; SF-539): -5.60 log molar
- Log10 LC50 (SF-539; SF-539, 2880 min): -5.30 log molar
- CC50 (SK-MEL-28; Homo sapiens, SK-MEL-28, 48 h, read-out: Log10 LC50, SK-MEL-28 (converted)): 7.76 µM
- Log10 LC50 (SK-MEL-28; SK-MEL-28, 2880 min): -5.37 log molar
- CC50 (SK-MEL-2; Homo sapiens, SK-MEL-2, 48 h, read-out: Log10 LC50, SK-MEL-2 (converted)): 5.75 µM
- Log10 LC50 (SK-MEL-2; SK-MEL-2, 2880 min): -5.39 log molar
- IC100 (SK-MEL-5; Homo sapiens, SK-MEL-5, 48 h, SK-MEL-5, read-out: Log10 TGI (converted)): 2.82 µM
- CC50 (SK-MEL-5; Homo sapiens, SK-MEL-5, 48 h, read-out: Log10 LC50, SK-MEL-5 (converted)): 5.5 µM
- Log10 TGI (SK-MEL-5; SK-MEL-5): -5.73 log molar
- Log10 LC50 (SK-MEL-5; SK-MEL-5, 2880 min): -5.36 log molar
- IC100 (SN-12C; Homo sapiens, SN12C, 48 h, SN-12C, read-out: Log10 TGI (converted)): 3.02 µM
- CC50 (SN-12C; Homo sapiens, SN12C, 48 h, read-out: Log10 LC50, SN-12C (converted)): 5.5 µM
- GI50 (SN-12C; Homo sapiens, SN12C, SN-12C, read-out: Log10 GI50 (converted)): 1.62 µM
- Log10 GI50 (SN-12C; SN-12C): -5.94 log molar
- Log10 TGI (SN-12C; SN-12C): -5.62 log molar
- Log10 LC50 (SN-12C; SN-12C, 2880 min): -5.31 log molar
- CC50 (SNB-19; Homo sapiens, SNB-19, 48 h, read-out: Log10 LC50, SNB-19 (converted)): 36.3 µM
- GI50 (SNB-19; Homo sapiens, SNB-19, SNB-19): 3.8 µM
- GI50 (SNB-19; Homo sapiens, SNB-19): 2.29 µM
- Log10 LC50 (SNB-19; SNB-19, 2880 min): -4.65 log molar
- IC100 (SNB-75; Homo sapiens, SNB-75, 48 h, SNB-75, read-out: Log10 TGI (converted)): 8.71 µM
- CC50 (SNB-75; Homo sapiens, SNB-75, 48 h, read-out: Log10 LC50, SNB-75 (converted)): 30.2 µM
- GI50 (SNB-75; Homo sapiens, SNB-75, SNB-75, read-out: Log10 GI50 (converted)): 2.95 µM
- Log10 GI50 (SNB-75; SNB-75): -5.63 log molar
- Log10 TGI (SNB-75; SNB-75): -5.25 log molar
- Log10 LC50 (SNB-75; SNB-75, 2880 min): -4.73 log molar
- CC50 (UACC-257; Homo sapiens, UACC-257, 48 h, read-out: Log10 LC50, UACC-257 (converted)): 6.61 µM
- Log10 LC50 (UACC-257; UACC-257, 2880 min): -5.47 log molar
- IC100 (UACC-62; Homo sapiens, UACC-62, 48 h, UACC-62, read-out: Log10 TGI (converted)): 3.16 µM
- CC50 (UACC-62; Homo sapiens, UACC-62, 48 h, read-out: Log10 LC50, UACC-62 (converted)): 5.62 µM
- Log10 TGI (UACC-62; UACC-62): -5.77 log molar
- Log10 LC50 (UACC-62; UACC-62, 2880 min): -5.37 log molar
- Log10 LC50 (P388/ADR; 2880 min): > -4.00 log molar
- CC50 (P388/ADR; Mus musculus, 48 h, read-out: Log10 LC50, P388/ADR (converted)): 69.2 µM
- GI50 (P388/ADR; Mus musculus, read-out: Log10 GI50 (converted)): 2.34 µM and 0.324 µM

Molecule: Methyl(11-hydroxy-5,12-dioxo-3,4,5,12-tetrahydroanthraceno[2,3-c]pyran-3-yl)ketone and Methyl(5-hydroxy-5,12-dioxo-3,4,5,12-tetrahydroanthraceno[2,3-c]pyran-3-yl)ketone [BCH-687]
- Log10 LC50, Mean / MG-MID (tumor cell lines): -4.10 log molar
- Average LOG10 LC50 (Leukemia): > -4.00 log molar
- Average LOG10 LC50 (NSC Lung): > -4.23(± 0.07) log molar
- Average LOG10 LC50 (SC Lung): > -4.18 log molar
- Average LOG10 LC50 (Colon): -4.25(± 0.09) log molar
- Average LOG10 LC50 (CNS): > -4.15 log molar
- Average LOG10 LC50 (Ovarian): -4.15(± 0.11) log molar
- Average LOG10 LC50, Mean Potency in solid tumors (solid tumors): -4.21(± 0.05) log molar
